Measured values published in US9169315B2, “Heparin cofactor II fragments with anti-inflammatory and anti-coagulant activity” (XIMMUNE AB, priority 2009, dated 2015).
No end group written: not given here.

Legend:
RAW 264.7 macrophages = test: Cytokines in supernatants of LPS-stimulated macrophages; assay type: cell-based, mouse; settings: 10 ng/ml E. coli LPS
Method: RAW 264.7 macrophages were stimulated with 10 ng/ml E. coli LPS in combination with indicated concentrations of the two peptides. (B) Similar as above, but using P. aeruginosa LPS(C) KYE28 reduced TNF-αproduction, MCP-1 and IL-10 production in macrophages. RAW 264. 7 cells were stimulated with 10 ng/ml E. coli LPS and cytokines were analysed in the cell supernatants
The cytokines IL-6, IL-10, MCP-1, INF-γ, and TNF-α were measured in cell culture supernatants from RAW264.7 cells and plasma from mice injected with LPS or P. aeruginosa (with or without peptide treatment) using the Cytometric bead array; Mouse Inflammation Kit (Becton Dickinson AB) according to the manufacturer's instructions. All plasma samples were stored at −20° C. before the analysis.

S. pyogenes = assay type: cell-based
Method: MIC assay was carried out by a microtiter broth dilution method as previously described in the NCSLA guidelines (Wiegand, I., Hilpert, K. & Hancock, R. E. Agar and broth dilution methods to determine the minimal inhibitory concentration (MIC) of antimicrobial substances. Nat Protoc 3, 163-175 (2008)). In brief, fresh overnight colonies were suspended to a turbidity of 0.5 units and further diluted in Mueller-Hinton broth (Becton Dickinson). For determination of MIC, peptides were dissolved in water at concentration 10 times higher than the required range by serial dilutions from a stock solution. Ten μl of each concentration was added to each corresponding well of a 96-well microtiter plate (polypropylene, Costar Corp.) and 90 μl of bacteria (1×10^5) in MH medium added. The plate was incubated at 37° C. for 16-18 h. MIC was taken as the lowest concentration where no visual growth of bacteria was detected.

P. aeruginosa = test: Electron microscopy of peptide-treated bacteria; assay type: cell-based; settings: 30 μM, 2 h, 37° C.
Method: (A) Permeabilizing effects of peptides on E. coli. Bacteria were incubated with the NLF20 and permeabilization was assessed using the impermeant probe FITC. (B) Electron microscopy analysis. P. aeruginosa and S. aureus bacteria were incubated for 2 h at 37° C. with 30 μM of NLF20 and visualized by negative staining. LL-37 is shown for comparison. Scale bar represents 1 μm. Control; Buffer control.

[1] = system: P. aeruginosa, E. coli, S. pyogenes, S. aureus, C. albicans; test: Antibacterial effects in human blood infected by bacteria; assay type: cell-based; settings: 50% citrate blood
Method: (§1) (A) Antibacterial effects of NLF20 in presence of the indicated bacteria in human blood (made 50% in PBS) are presented. The indicated microbes (2×10^8 cfu/ml) were added to 50% citrate blood, followed by addition of peptide at 30, 60 or 120 μM. The number of cfu was determined after an incubation period of 1 h. (B) In an identical setup, hemolysis effects were studied. The bacteria were added to 50% citrate blood, followed by addition of peptide. Hemolysis was assessed after 1 hour.
E. coli ATCC 25922, P. aeruginosa 15159, or S. aureus ATCC 29213 bacteria were grown to mid-logarithmic phase in Todd-Hewitt (TH) medium (Becton and Dickinson, Maryland, USA). The microorganisms were then washed and diluted in 10 mM Tris, pH 7.4 containing 5 mM glucose. Following this, bacteria (50 μl; 2×10^6 cfu/ml) were incubated, at 37° C. for 2 hours, with NLF20 or LL-37 (at 0.03, 0.06, 0.3, 0.6, 3, 6, 30, 60 μM) in 10 mM Tris, 0.15 M NaCl, with or without 20% human citrate-plasma. […] To quantify the bactericidal activity, serial dilutions of the incubation mixtures were plated on TH agar, followed by incubation at 37° C. overnight and the number of colony-forming units was determined. […] Significance was determined using the statistical software SigmaStat (SPSS Inc., Chicago, Ill., USA).

human blood = test: Hemolysis in human blood infected by bacteria; assay type: cell-based; settings: peptide dose of 120 μM
Method: as §1
In the experiments with blood infected by bacteria, citrate-blood was diluted (1:1) with PBS.

Sequence	IL-10 production (RAW 264.7 macrophages)	MCP-1 production (RAW 264.7 macrophages)	TNF-α production (RAW 264.7 macrophages)	MIC (S. pyogenes) [µM]	Membrane damage by electron microscopy (P. aeruginosa)	Antibacterial effect in infected human blood ([1]; P. aeruginosa, E. coli, S. pyogenes, peptide dose 120 μM, 1 h)	Antibacterial/antifungal effect in infected human blood ([1]; S. aureus and C. albicans)	Accompanying hemolysis in infected human blood (human blood) [%]
KYEITTIHNLFRKLTHRLFRRNFGYTLR [KYE28]	reduced	reduced	reduced	10	–	–	–	–
NLFRKLTHRLFRRNFGYTLR [NLF20]	–	–	–	2.5	extensive membrane damage	almost complete eradication of P. aeruginosa, E. coli, as well as S. pyogenes	not active	≤ 2
